Test results: US20060251638A1, “Cytoprotection through the use of hif hydroxylase inhibitors” (priority 2003, published 2006)

What was measured:
[1] = system: gene encoding adrenomedullin; test: Adrenomedullin gene expression in Hep3B cells (microarray); type: cell-based, human; conditions: 25 μM compound, 6 hrs, average of two determinations
Protocol: Hep3B cells (ATCC No. HB-8064) were grown in DMEM containing 8% fetal bovine serum. Hep3B cells were seeded into 6-well culture dishes at ˜500,000 cells per well. After 8 hours, the media was changed to DMEM containing 0.5% fetal bovine serum and the cells were incubated for an additional 16 hours. Compound A, compound B, compound C, compound G, or compound H was added to the cells (25 μM final concentration) and the cells were incubated for various times. Control cells were incubated with vehicle (DMSO) with no compound treatment. Harvested cells were assessed for cell viability (GUAVA), or added to RNA extraction buffer (RNeasy, Qiagen) and stored at −20° C. for subsequent RNA purification.
RNA was precipitated in 0.3 M sodium acetate (pH 5.2), 50 ng/ml glycogen, and 2.5 volumes of ethanol for one hour at −20° C. Samples were centrifuged and pellets were washed with cold 80% ethanol, dried, and resuspend in water. Double stranded cDNA was synthesized using a T7-(dT)24 first strand primer (Affymetrix, Inc., Santa Clara Calif.) and the SUPERSCRIPT CHOICE system (Invitrogen) according to the manufacturer's instructions. The final cDNA was extracted with an equal volume of 25:24:1 phenol:chloroform:isoamyl alcohol using a PHASE LOCK GEL insert (Brinkman, Inc., Westbury N.Y.). The aqueous phase was collected and cDNA was precipitated using 0.5 volumes of 7.5 M ammonium acetate and 2.5 volumes of ethanol. Alternatively, cDNA was purified using the GENECHIP sample cleanup module (Affymetrix) according to the manufacturer's instructions.
Biotin-labeled cRNA was synthesized from the cDNA in an in vitro […] (IVT) reaction using a BIOARRAY HighYield RNA transcript labeling kit (Enzo Diagnostics, Inc., Farmingdale N.Y.) according to the manufacturer's instructions. Final labeled product was purified and fragmented using the GENECHIP sample cleanup module (Affymetrix) according to the manufacturer's instructions.
Hybridization cocktail was prepared by bringing 5 μg probe to 100 μl in 1× hybridization buffer (100 mM MES, 1 M [Na^+], 20 mM EDTA, 0.01% Tween 20), 100 μg/ml herring sperm DNA, 500 μg/ml acetylated BSA, 0.03 nM contol oligo B2 (Affymetrix), and 1× GENECHIP eukaryotic hybridization control (Affymetrix). The cocktail was sequentially incubated at 99° C. for 5 minutes and 45° C. for 5 minutes, and then centrifuged for 5 minutes. The […] array (Affymetrix) was brought to room temperature and then prehybridized with 1× hybridization buffer at 45° C. for 10 minutes with rotation. The buffer was then replaced with 80 μl hybridization cocktail and the array was hybridized for 16 hours at 45° C. at 60 rpm with counter balance. Following hybridization, arrays were washed once with 6×SSPE, 0.1% Tween 20, and then washed and stained using R-phycoerythrin-conjugated streptavidin (Molecular Probes, Eugene Oreg.), goat anti-streptavidin antibody (Vector Laboratories, Burlingame Calif.), and a GENECHIP Fluidics Station 400 instrument (Affymetrix) according to the manufacturer's EukGE-WS2v4 protocol (Affymetrix). Arrays were analyzed using a GENEARRAY scanner (Affymetrix) and Microarray Suite software (Affymetrix).
RNA quality was monitored by capillary electrophoresis (Agilent Bioanalyzer). […] Array performance was analyzed with Affymetrix MicroArray Suite (MAS) software and individual probe sets were assigned “present”, “marginal, and “absent” calls according to software defaults. […]

H9c2 rat cardiomyocytes = test: Intracellular ATP levels in H9c2 cardiomyocytes after oxygen and glucose deprivation (glucose-free DMEM, 2 mM KCN); type: cell-based; conditions: H9c2, 20 μM pretreatment 24 hours, glucose-free DMEM and 2 mM KCN for 30 minutes; vehicle control 415
Protocol: In similar experiments, H9c2 rat cardiomyocytes were pretreated with either vehicle control (0.5% DMSO) or 20 μM of Compound A, Compound B, Compound C, Compound D, Compound E, Compound F, Compound G, or compound H. After 24 hours, cells were washed with serum-free DMEM and subjected to oxygen and glucose deprivation by incubating the cells in glucose-free DMEM and 2 mM KCN for 30 minutes. Intracellular ATP levels were then determined.

HO-1 protein = HO-1 protein levels in H9c2 cardiomyocytes by ELISA; type: cell-based, rat; conditions: H9c2, 100 μM compound; control 2.86
Protocol: In another series of experiments, H9c2 rat cardiomyocytes were treated with either vehicle control or with various concentrations (1 μM, 3 μM, 10 μM, 30 μM, and 100 μM) of compound C or compound G. Cell lysates were harvested and HO-1 protein levels determined by ELISA according to the manufacturer's instructions (cat # EKS-810; Stressgen, Victoria, BC, Canada). Data shown below in Table 4 represents values obtain with 100 μM compound.

[2] = system: adrenomedullin gene expression; test: Adrenomedullin gene expression in H9c2 cardiomyocytes with or without KCN challenge; type: cell-based, rat; conditions: H9c2, 10 μM compound 24 hours
Protocol: Adrenomedullin gene expression was also examined in cardiomyocytes treated with compound and subsequently challenged with KCN, an inhibitor of oxidative glucose metabolism. H9c2 rat cardiomyocytes were cultured in 96-well tissue culture plates (approximately 20,000 cells per well) in DMEM containing 10% fetal bovine serum. Media was changed to DMEM containing 0.5% fetal bovine serum, and the cells were treated with 10 μM compound C or compound D for 24 hours. Media was then replaced with glucose-free DMEM (Gibco/Invitrogen Cat. # 11966-025) containing 2 mM KCN (Sigma-Aldrich Cat. No. 207810). Results of adrenomedullin gene expression, presented as fold-increase in gene expression above DMSO control, are shown below in Table 2.

gene encoding HSP70-3 = test: HSP70-3 mRNA levels in mouse tissues after oral dosing (microarray); type: in vivo
Protocol: Twelve Swiss Webster male mice (30-32 g) were obtained from Simonsen, Inc (Gilroy, Calif.) and treated by oral gavage two times per day for 2.5 days (5 doses) with a 4 ml/kg volume of either 0.5% carboxymethyl cellulose (CMC; Sigma-Aldrich, St. Louis Mo.) (0 mg/kg/day) or 2.5% compound H (25 mg/ml in 0.5% CMC) (200 mg/kg/day). Four hours after the final dose, the mice were then sacrificed and approximately 150 mg of liver and each kidney were isolated and stored in RNALATER solution (Ambion) at −20° C.
To determine gene induction patterns over time, twenty four Swiss Webster male mice (30-32 g) were obtained from Simonsen, Inc. and treated by oral gavage with a 4 ml/kg volume of either 0.5% carboxymethyl cellulose (CMC; Sigma-Aldrich, St. Louis Mo.) (0 mg/kg) or […] compound H (25 mg/ml in 0.5% CMC) (100 mg/kg). At 4, 8, 16, 24, 48, or 72 hours after the final dose, animals were anesthetized with isoflurane. The mice were then sacrificed and tissue samples of kidney, liver, brain, lung, and heart were isolated and stored in RNALATER solution (Ambion) at −80° C. RNA isolation and gene expression analysis were performed as described below.
RNA isolation was carried out using the following protocol. A section of each organ was diced, 875 μl of RLT buffer (RNEASY kit; Qiagen Inc., Valencia Calif.) was added, and the pieces were homogenized for about 20 seconds using a rotor-stator POLYTRON homogenizer (Kinematica, Inc., Cincinnati Ohio). […] The RNA was eluted into […] of water and quantitated with RIBOGREEN reagent (Molecular Probes, Eugene Oreg.). The absorbance at 260 and 280 nm was measured to determine RNA purity and concentration.
Alternatively, tissue samples were diced and homogenized in TRIZOL reagent (Invitrogen Life Technologies, Carlsbad Calif.) using a rotor-stator POLYTRON homogenizer (Kinematica). […] The absorbance at 260 and 280 nm was measured to determine RNA purity and concentration. […]

[3] = then glucose-free DMEM with 2 mM KCN
[4] = Animal Study III: mice, oral gavage, 100 mg/kg

| Structure (SMILES) | Adrenomedullin gene expression, fold-increase above non-treated control [1] [fold] | ATP (relative light units) (H9c2 rat cardiomyocytes) | also measured |
| --- | --- | --- | --- |
| O=C(O)c1c[nH]c2c(ccc3cccnc32)c1=O [Compound A, 4-Oxo-1,4-dihydro-[1,10]phenanthroline-3-carboxylic acid] | 3.582 | 968.5 |  |
| COc1ccc(CCN(CCC(=O)NO)S(=O)(=O)c2ccc(NC(=O)N(Cc3ccccc3)Cc3ccccc3)cc2)cc1 [Compound B, 3-{[4-(3,3-Dibenzyl-ureido)-benzenesulfonyl]-[2-(4-methoxy-phenyl)-ethyl]-amino}-N-hydroxy-propionamide] | 8.334 | 683.5 |  |
| O=C(O)CNC(=O)c1ncc2cc(Sc3ccccc3)ccc2c1O [Compound C, [(4-Hydroxy-7-phenylsulfanyl-isoquinoline-3-carbonyl)-amino]-acetic acid] | 3.896 | 3710 | HO-1 (ng/mg total cell protein) (HO-1 protein): 102.68 ng/mg total cell protein; Adm gene expression, fold-increase above DMSO control ([2]; no KCN): 4.8 fold; Adm gene expression, fold-increase above DMSO control [2, 3]: 7.9 fold |
| O=C(O)CNC(=O)c1ncc2ccc(Sc3ccccc3)cc2c1O [Compound D, [(4-Hydroxy-6-phenylsulfanyl-isoquinoline-3-carbonyl)-amino]-acetic acid] |  | 859.5 | Adm gene expression, fold-increase above DMSO control ([2]; no KCN): 2.2 fold; Adm gene expression, fold-increase above DMSO control [2, 3]: 4.2 fold |
| O=C(O)CNC(=O)c1nc(Cl)c2cc(Oc3ccccc3)ccc2c1O [Compound E, [(1-Chloro-4-hydroxy-7-phenoxy-isoquinoline-3-carbonyl)-amino]-acetic acid] |  | 2043 |  |
| O=C(O)CNC(=O)c1nc(Br)c2cc(Oc3ccccc3)ccc2c1O [Compound F, [(1-Bromo-4-hydroxy-7-phenoxy-isoquinoline-3-carbonyl)-amino]-acetic acid] |  | 1134 |  |
| O=C(O)CNC(=O)c1nc(Cl)c2ccccc2c1O [Compound H, [(1-Chloro-4-hydroxy-isoquinoline-3-carbonyl)-amino]-acetic acid] | 1.298 | 947 | HSP70-3 mRNA Levels Liver (gene encoding HSP70-3; Animal Study I: mice, oral gavage two times per day for 2.5 days, 200 mg/kg/day, four hours after final dose): 2.77; HSP70-3 mRNA Levels Liver (gene encoding HSP70-3; [4]): 1.441; HSP70-3 mRNA Levels Lung (gene encoding HSP70-3; [4]): 3.0 |
